Experimental data as given in ChEMBL document CHEMBL1287668, “Synthesis, antioxidant and toxicological study of novel pyrimido quinoline derivatives from 4-hydroxy-3-acyl quinolin-2-one” (Bioorg Med Chem Lett, 2010).

Assays:
[1] = Antioxidant activity assessed as EDTA chelating effect after 10 mins by spectrophotometric analysis; format: functional
[2] = Antioxidant activity assessed as total reducing activity after 30 mins by spectrophotometric analysis; format: functional
[3] = Antioxidant activity assessed as super oxide scavenging activity after 150 mins by spectrophotometric analysis; format: functional; set-up: concentration or dose not given beside the values
[4] = Antioxidant activity assessed as nitric oxide scavenging activity after 150 mins by spectrophotometric analysis; format: functional; set-up: concentration or dose not given beside the values
[5] = tested on: Radical scavenging activity; assay: Antioxidant activity assessed as DPPH free radical scavenging activity after 30 mins by spectrophotometric analysis; format: functional
[6] = tested on: Rattus norvegicus; assay: Toxicity in Wistar rat fed 4 hrs post dosing assessed as incidence of adverse effects at 2 mg/kg, po administered as single dose measured on day 14; format: organism-based; set-up: dose 2 mg/kg, route oral; settings: in vivo
[7] = tested on: Rattus norvegicus; assay: Toxicity in Wistar rat fed 4 hrs post dosing assessed as incidence of adverse effects at 2 mg/kg, po administered as single dose measured on day one; format: organism-based; set-up: dose 2 mg/kg, route oral; settings: in vivo
[8] = Antioxidant activity assessed as ferric ion reducing ability by spectrophotometric analysis; format: functional
[9] = Toxicity in po dosed Wistar rat; format: organism-based; settings: in vivo
[10] = tested on: Rattus norvegicus; assay: Toxicity in Wistar rat assessed as grip strength at 200 mg/kg, po measured after 24 hrs; format: organism-based; set-up: dose 200 mg/kg, route oral; settings: in vivo
[11] = tested on: Rattus norvegicus; assay: Toxicity in Wistar rat assessed as pupil dilatation at 200 mg/kg, po measured after 24 hrs; format: organism-based; set-up: dose 200 mg/kg, route oral; settings: in vivo
[12] = tested on: Rattus norvegicus; assay: Toxicity in Wistar rat assessed as incidence of tremor at 200 mg/kg, po measured after 24 hrs; format: organism-based; set-up: dose 200 mg/kg, route oral; settings: in vivo
[13] = tested on: Rattus norvegicus; assay: Toxicity in Wistar rat assessed as incidence of convulsion at 200 mg/kg, po measured after 24 hrs; format: organism-based; set-up: dose 200 mg/kg, route oral; settings: in vivo

Row | Structure (SMILES) | Activity [1] [mg] | Activity [2] [µmol] | Activity [3] [%] | Activity [4] [%] | Activity [5] [µg] | Activity [6] | Activity [7] | Activity [8] [mmol] | MTD [9] [mg/kg] | Activity [10] | Activity [11] | Activity [12] | Activity [13]
1 | COc1ccc(O)c(C(C)(C)C)c1.COc1ccc(O)cc1C(C)(C)C | 16.1 | 8050 | 76.5 | 79.1 | 170 | – | – | – | – | – | – | – | –
2 | Cc1nc(=O)[nH]c2c1c(=O)[nH]c1ccccc12 | 10.7 | 3880 | 38 | 62.3 | 1410 | Non-toxic | Non-toxic | 205 | 2000 | Toxic | Toxic | Toxic | Toxic
3 | CC1=NNC(=O)Nc2c1c(=O)[nH]c1ccccc21 | 12.3 | 2590 | 40.9 | 16.1 | 540 | – | – | – | – | – | – | – | –
4 | Cc1nc(=S)[nH]c2c1c(=O)[nH]c1ccccc12 | 9.6 | 3630 | 22.4 | 12 | 1040 | – | – | 145 | – | – | – | – | –
5 | Cc1noc2c1c(=O)[nH]c1ccccc12 | 4.9 | 4010 | 16.6 | 40.3 | 466 | – | – | 169 | – | – | – | – | –
6 | Cc1[nH]nc2c1c(=O)[nH]c1ccccc12 | 10.4 | 1230 | 8.7 | 18.5 | 1110 | – | – | 150 | – | – | – | – | –
7 | CC1=NNC(=S)Nc2c1c(=O)[nH]c1ccccc21 | 9.1 | 2650 | 74.5 | 61.6 | 752 | Non-toxic | Non-toxic | – | 2000 | Toxic | Toxic | Toxic | Toxic
8 | Cc1cc(C(C)(C)C)c(O)c(C(C)(C)C)c1 | 13.2 | 13100 | 87.1 | 92.1 | 150 | – | – | 134 | – | – | – | – | –
